Here are results for 6 compounds from US20150202219A1, “NEUROPROTECTION FROM BRAIN ANOXIA AND REPERFUSION INJURY DURING STROKE AND COMPOSITIONS OF PKG PATHWAY ACTIVATORS AND METHOD OF USE THEREOF” (Florida Atlantic University, priority 2010, published 2015).

For one assay, the system named is PKG. Description: PKG enzyme activity assay on heads of treated flies. Conditions: heads of animals from FIG. 4a experiments; N=6 for each treatment; SNK. It is filed as biochemical, Drosophila melanogaster. The procedure: PKG enzyme activity assays were conducted according to the procedure outlined in Kaun et al. (2007)(Kaun et al., 2007b). Adult Drosophila were decapitated and the heads were homogenized in 25 mM 1-1 Tris (pH 7.4), 1 mM 1-1 EDTA, 2 mM 1-1 EGTA, 5 mM 1-1 β-mercaptoethanol, 0.05% Triton X-100 and protease inhibitor solution (Roche Diagnostics). Following microcentrifugation for 5 min, the supernatant was removed and those supernatants containing equal amounts of total protein were examined for PKG enzyme activity. The reaction mixture contained the following substances: 40 mM 1-1 Tris-HCl (pH 7.4), 20 mM 1-1 magnesium acetate, 0.2 mM 1-1 [γ^32P]ATP (500-1000 c.p.m. pmol-1), 113 mg ml-1 heptapeptide (RKRSRAE), 3 mM 1-1 cGMP and a highly specific inhibitor of cAMP-dependent protein kinase. The next step of the procedure involved incubating the reaction mixtures at a temperature of 30° C. for 10 min, followed by ending the reaction by spotting 70 μl of the reaction mixture onto Whatman P-81 filters. To remove any unreacted [γ^32P]ATP, these spots were then soaked with 75 mM 1-1 H3PO4 for 5 min and washed three times with 75 mM 1-1 H3PO4. Before quantifying enzyme activity, filters were rinsed with 100% ethanol and air dried. To calculate PKG enzyme activity, counts were taken in a Wallac 1409 Liquid Scintillation Counter using universal scintillation cocktail (ICN). PKG activity was presented in the figures as pmol of ^32P incorporated into the substrate min-1 mg-1 protein.

In assay [1] the test system is adult Drosophila melanogaster. In words: Time to anoxic coma onset (locomotion failure) during acute hypoxia after volatilized drug treatment. It is filed as in vivo. Conditions: adult sitter flies; single agent volatilized from 10 uL DMSO for 1 hr; 1 mM KT5823, 1 mM Cantharidin, 200 mM DCA, 10 mM 8-Bromo cGMP, 10 mM T-0156; argon displacement; Dunn's p<0.05. The procedure:
Using both genetics and pharmacology, the roles and order of function of additional cGMP-dependent signaling molecules in modulating acute low-oxygen sensitivity of locomotory failure were examined. To do this, we imposed acute hypoxia (<0.2% O2 within 5 min) by displacing environmental oxygen with the inert gas argon and then measured time to failure of locomotion (anoxic coma), which can be observed in less than 2% atmospheric oxygen (Haddad, 2000). We also used a novel but reliable method of pharmacological volatilization as a means to manipulate, in vivo, the activity of target enzymes and molecules such as PKG. Flies were frozen immediately after each trial, and heads were dissected and examined for PKG activity, as an indicator for activity levels in the brain (Belay et al., 2007; Kaun et al., 2007b). Lastly, using adult flies we tested what has been previously shown in embryos and larva (Wingrove and O'Farrell, 1999), the effect of prolonged anoxia (6 hours) on animal survival, after a 24 hour recovery.
Ten flies (separated into males or females) from each of the three strains (rover [for^R], sitter [for^s] and for^s2) were selected and placed in three separate vials with food at least 24 hours before each experiment. At the time of the experiment, flies were emptied into 10 mL empty test vials covered with permeable sponge caps of equivalent thickness, allowing for consistent gas exchange. These test vials were then placed into a 600 mL beaker which was covered with parafilm, creating a closed chamber with an escape hole in the parafilm (1 cm diameter). The purpose of this hole is to allow the lighter normal air (compared to argon which is heavier) to escape from the top of the beaker. The parafilm top was punctured with a needle connected to a gas tank (by a plastic hose), through which the inert gas argon was expelled. Preliminary work was done with pure nitrogen, where no significant differences between the uses of the two gases were observed (data not shown).
The needle tip was fastened to the bottom of the beaker and inserted into a larger sponge of similar texture to the vial sponge caps to ensure that gas expelled from the needle was dispersed equally throughout the beaker. […]
The experiment required exposing the test vials with 10 flies in a vial within the container to pure argon gas expelled from the tank at a flow rate of 600 cc/min±5%. Time of behavioral failure was recorded by observing the fly undergo a seizure, which was quickly followed by an anoxic coma. […] The program recorded these times of failure for each individual fly within the vials and then computed an average failure time for each vial (each vial has 10 flies but gives an average value for N=1). […]

In a further assay the test system is NT-3. The settings on record: cited from earlier work.
A further assay concerns protein phosphatase. Conditions: cited from earlier work.
In assay [2] the target is T1, phosphodiesterase-5 (PDE-5) (Mus musculus, UniProt Q8CG03).
T1 construct: Sildenafil (Viagra) was administered to mice, 1.4-mg/kg intraperitoneal injections daily for 8 days; host or cells: mice in vivo (brain neurons under hypoxia)
The settings on record: mice; 1.4-mg/kg intraperitoneal injections daily for 8 days; cited from earlier work.

On to `Nc1nc2c(nc(Br)n2[C@@H]2O[C@@H]3COP(=O)(O)O[C@H]3[C@H]2O)c(=O)[nH]1` [8-Bromo cGMP, 8-Bromo-cGMP], for which the “PKG enzyme activity levels in heads compared to sham control” value with PKG is reported as “significant effects compared to that of the sham control”. Also, the “anoxic coma onset sensitivity (time to failure) vs sham control” value in assay [1] is “significant sensitivity to anoxic coma”. The like results for `C[C@@]12C(=O)OC(=O)[C@]1(C)[C@H]1CC[C@@H]2O1` [Cantharidin] were, in that order, “no significant effects on PKG enzyme activity levels” and “significant resilience to anoxic coma”. For `COC(=O)[C@@]1(OC)C[C@H]2O[C@]1(C)n1c3ccccc3c3c4c(c5c6ccccc6n2c5c31)C(=O)N(C)C4` [KT5823], the “PKG enzyme activity levels in heads compared to sham control” value in the assay with PKG was “significant effects compared to that of the sham control”. For the same compound, the “neurotrophin (NT-3) activity” value with NT-3 is reported as “potentiation of NT-3”. Moreover, the “anoxic coma onset sensitivity (time to failure) vs sham control” value in assay [1] is given as “significant resilience to anoxic coma”. Take `C=C1[C@@H](O)[C@@H]2O[C@]3(CC[C@H](/C=C/[C@@H](C)[C@@H]4CC(C)=C[C@@]5(O[C@H](C[C@@](C)(O)C(=O)O)CC[C@H]5O)O4)O3)CC[C@H]2O[C@@H]1[C@@H](O)C[C@H](C)[C@H]1O[C@@]2(CCCCO2)CC[C@H]1C` [Okadaic acid]: the nerve cell death result with protein phosphatase is listed as “increase nerve cell death”. With `CCCc1nn(C)c2c(=O)[nH]c(-c3cc(S(=O)(=O)N4CCN(C)CC4)ccc3OCC)nc12` [Sildenafil, sildenafil], in assay [2], the “neuron apoptosis during hypoxia” value is listed as “reduces neuron apoptosis”. Turning to `COC(=O)c1c(-c2cc(OC)c(OC)c(OC)c2)c2ccnc(OCc3ncccn3)c2c(=O)n1Cc1ccnc(C)c1` [T-0156], the “PKG enzyme activity levels in heads compared to sham control” value with PKG is on record as “significant effects compared to that of the sham control”. Besides, the “anoxic coma onset sensitivity (time to failure) vs sham control” value in assay [1] is “significant sensitivity to anoxic coma”.
